Measurements: patent publication US12043590B2, “Co-crystals comprising levothyroxine and a dicarboxylic acid” (Sandoz AG, priority 2018, dated 2024)

Assays:
Thermal stability (TGA) = type: physicochemical; conditions: for Temperature range of desolvation event (TGA): TGA 20 to 235° C., 10 K/min, nitrogen purge, event = loss of EtOH, H2O or lactic acid
Protocol: Each sample (approximately 4±0.0005 mg using a UM3 ultramicrobalance, Mettler, Greifensee, CH) was weighed into an unsealed platinum sample holder (50 microlitre). The samples were heated from 20 to 235° C. at a rate of 10 K/min. Nitrogen (sample purge rate 20 mL/min and balance purge rate 40 mL/min)) was used as purge gas.

Thermal stability (DSC) = type: physicochemical; conditions: for Tpeak of desolvation event (first endothermic peak maximum, DSC): DSC 20 to 235° C., dry nitrogen purge, event = loss of EtOH, H2O or lactic acid; for Tpeak of desolvation event (first endothermic peak maximum, DSC) / Onset temperature of decomposition peak (DSC) / Peak maximum temperature of decomposition peak (DSC): heating rate 20 K/min; for Stability against temperature stress compared to levothyroxine sodium pentahydrate (DSC conclusion): DSC analysis; for Onset temperature of decomposition peak (DSC) / Peak maximum temperature of decomposition peak (DSC): co-crystal: second endotherm, concomitant melting and decomposition, sodium pentahydrate: exotherm
Protocol: Each sample (approximately 4±0.0005 mg using a UM3 ultramicrobalance, Mettler, Greifensee, CH) was weighed into an aluminum pan (25 microlitre) and sealed with a cover, which was perforated by a needle. Dry nitrogen was used as the purge gas (purge rate: 20 mL/min). The samples were heated from 20 to 235° C. at a heating rate of 20 K/min.

[1] = Chemical stability: exposure to ambient air at 40° C. and 0% RH, followed by 1H-NMR
[2] = Hamad et al., Pharm Dev Technol 2015; 20(3): 314-319; cited from earlier work
[3] = TGA 10 K/min, up to about 120° C.
[4] = listed as L-tartaric acid L-lactic acid co-crystal
[5] = listed as L-tartaric acid co-crystal

**Q.** With `N[C@@H](Cc1cc(I)c(Oc2cc(I)c(O)c(I)c2)c(I)c1)C(=O)O` [levothyroxine L-tartaric acid L-lactic acid co-crystal] as the molecule, how does the “Mass loss up to about 120° C. (TGA)” value (Thermal stability (TGA); [3]) read?
**A.** about 0.5 weight-%

**Q.** And the “Temperature range of desolvation event (TGA)” value (from here on “Temperature range”) (Thermal stability (TGA))?
**A.** 150 to 170 °C

**Q.** What about the “Temperature range” value (Thermal stability (TGA); [4]) of the same molecule?
**A.** ~150-170 °C

**Q.** What about the “Tpeak of desolvation event (first endothermic peak maximum, DSC)” value (Thermal stability (DSC)) of the same molecule?
**A.** about 162 °C

**Q.** And the “Tpeak of desolvation event (first endothermic peak maximum, DSC)” value (Thermal stability (DSC); [4])?
**A.** 162 °C

**Q.** What about the “Stability against temperature stress compared to levothyroxine sodium pentahydrate (DSC conclusion)” value (Thermal stability (DSC)) of the same molecule?
**A.** more stabe against temperature stress

**Q.** Which “Mass loss up to about 120° C. (TGA), in words” value (Thermal stability (TGA); [3]) does the source give for `N[C@@H](Cc1cc(I)c(Oc2cc(I)c(O)c(I)c2)c(I)c1)C(=O)[O-].[Na+]` [levothyroxine sodium pentahydrate, Levothyroxine sodium pentahydrate, reference compound] here?
**A.** significant weight loss

**Q.** And the “Temperature range” value (Thermal stability (TGA))?
**A.** ~30-120 °C

**Q.** And the “Chemical stability under the applied stress conditions (1H-NMR)” value ([1]; ambient air (oxygen about 20.9 volume %), 6 weeks, spectra at start, 3 and 6 weeks)?
**A.** chemically unstable

**Q.** What about the “1H-NMR spectrum change after 3 weeks” value ([1]; ambient air, 3 weeks) of the same molecule?
**A.** additional peaks become evident

**Q.** And the “1H-NMR spectrum change after 6 weeks” value ([1]; ambient air, 6 weeks)?
**A.** become even more intense

**Q.** What about the “Chemical degradation on exposure to dry conditions in the presence of molecular oxygen” value [2] of the same molecule?
**A.** significant degradation

**Q.** And the “Onset temperature of decomposition peak (DSC)” value (Thermal stability (DSC))?
**A.** about 202 °C

**Q.** And the “Peak maximum temperature of decomposition peak (DSC)” value (Thermal stability (DSC))?
**A.** about 205 °C

**Q.** Which results are given for `N[C@@H](Cc1cc(I)c(Oc2cc(I)c(O)c(I)c2)c(I)c1)C(=O)O` [levothyroxine L-tartaric acid co-crystal]?
**A.** Mass loss up to about 120° C. (TGA), in words (Thermal stability (TGA); [3]): only a slight mass loss; Temperature range of desolvation event (TGA) (Thermal stability (TGA)): 150 to 170 °C; Temperature range of desolvation event (TGA) (Thermal stability (TGA); [5]): ~150-170 °C; Tpeak of desolvation event (first endothermic peak maximum, DSC) (Thermal stability (DSC)): about 165 °C; Tpeak of desolvation event (first endothermic peak maximum, DSC) (Thermal stability (DSC); [5]): 165 °C; Stability against temperature stress compared to levothyroxine sodium pentahydrate (DSC conclusion) (Thermal stability (DSC)): more stable against temperature stress; Onset temperature of decomposition peak (DSC) (Thermal stability (DSC)): about 180 °C; Peak maximum temperature of decomposition peak (DSC) (Thermal stability (DSC)): about 197 °C
